This passage reports IC50 results from US10710980B2, “Aminopyridine derivatives and their use as selective ALK-2 inhibitors” (priority 2016, dated 2020).

SMILES strings stand for the structures.

The target in one assay is ALK3 (aa198-525) (Homo sapiens (Human), UniProt P36894). Put plainly: ADPGlo biochemical autophosphorylation assay, ALK3. The following applies: 15 μm ATP, 60 min at 32° C.
For assay [1], the target named is T1, wild-type ALK2 (aa172-499) (Homo sapiens (Human), UniProt Q04771). Put plainly: ADPGlo biochemical autophosphorylation assay, ALK2. The settings on record: 15 μm ATP, 60 min at 32° C.
T1 sequence (Q04771 172-499): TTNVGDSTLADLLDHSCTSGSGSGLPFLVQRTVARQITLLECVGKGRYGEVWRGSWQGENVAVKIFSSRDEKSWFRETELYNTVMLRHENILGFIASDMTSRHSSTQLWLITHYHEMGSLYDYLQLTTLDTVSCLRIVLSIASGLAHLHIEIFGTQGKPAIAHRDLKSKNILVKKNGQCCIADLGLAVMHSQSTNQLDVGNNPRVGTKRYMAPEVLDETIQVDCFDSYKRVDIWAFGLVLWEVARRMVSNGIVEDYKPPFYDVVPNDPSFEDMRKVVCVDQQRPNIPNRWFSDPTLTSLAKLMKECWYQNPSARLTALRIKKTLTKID
Assay [2] has as its target T1, wild-type ALK2 (aa172-499). Put plainly: Caliper biochemical peptide phosphorylation assay, ALK2. The following applies: 15 μm ATP, 60 min at 30° C.; read-out: ALK2 EPK (IC50).
For another assay, the target named is ALK6 (aa168-495) (Homo sapiens (Human), UniProt O00238). Put plainly: Caliper biochemical peptide phosphorylation assay, ALK6. The following applies: 15 μm ATP, 60 min at 30° C.; read-out: ALK6 EPK (IC50).
Sequence of ALK6 (aa168-495) (O00238 168-495): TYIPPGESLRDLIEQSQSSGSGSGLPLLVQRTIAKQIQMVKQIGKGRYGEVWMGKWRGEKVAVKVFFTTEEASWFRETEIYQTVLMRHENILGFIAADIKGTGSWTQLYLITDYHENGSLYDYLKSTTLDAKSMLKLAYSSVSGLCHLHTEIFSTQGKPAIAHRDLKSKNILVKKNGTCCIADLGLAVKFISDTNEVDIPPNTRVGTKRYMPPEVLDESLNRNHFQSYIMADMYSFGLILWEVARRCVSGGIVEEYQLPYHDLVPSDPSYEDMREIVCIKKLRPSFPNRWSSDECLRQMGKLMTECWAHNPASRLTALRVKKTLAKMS
A further assay addresses ALK1 (aa166-493) (Homo sapiens (Human), UniProt P37023). In words: Caliper biochemical peptide phosphorylation assay, ALK1. The following applies: 15 μm ATP, 60 min at 30° C.; read-out: ALK1 EPK (IC50).
In assay [3] the test system is BMP response element (BRE) luciferase reporter in HuH7 cells, BMP6 stimulated. Put plainly: BMP signaling reporter gene assay. The class given is cell-based. The settings on record: Homo sapiens, Huh-7; HuH7 BRE-luciferase, BMP6 100 ng/ml, 5 hours; read-out: MSD BMP RGA IC50. (Reporter assays use an easily measured gene product as a stand-in for the process of interest.)

The target in the next assay is ALK5 (aa162-503) (Homo sapiens (Human), UniProt P36897). Put plainly: Caliper biochemical peptide phosphorylation assay, ALK5. The following applies: 15 μm ATP, 60 min at 30° C.; read-out: ALK5 EPK (IC50).
Sequence of ALK5 (aa162-503) (P36897 162-503): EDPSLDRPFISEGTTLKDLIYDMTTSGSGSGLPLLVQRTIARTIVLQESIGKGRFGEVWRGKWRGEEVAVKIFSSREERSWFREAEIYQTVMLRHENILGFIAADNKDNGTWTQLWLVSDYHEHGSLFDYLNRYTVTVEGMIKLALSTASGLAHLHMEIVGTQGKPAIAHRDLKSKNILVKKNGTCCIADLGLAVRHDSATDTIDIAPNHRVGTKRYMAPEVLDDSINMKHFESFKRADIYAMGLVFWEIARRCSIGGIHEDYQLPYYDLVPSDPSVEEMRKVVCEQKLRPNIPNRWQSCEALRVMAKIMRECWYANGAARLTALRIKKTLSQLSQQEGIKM

Sequence of ALK1 (aa166-493) (P37023 166-493): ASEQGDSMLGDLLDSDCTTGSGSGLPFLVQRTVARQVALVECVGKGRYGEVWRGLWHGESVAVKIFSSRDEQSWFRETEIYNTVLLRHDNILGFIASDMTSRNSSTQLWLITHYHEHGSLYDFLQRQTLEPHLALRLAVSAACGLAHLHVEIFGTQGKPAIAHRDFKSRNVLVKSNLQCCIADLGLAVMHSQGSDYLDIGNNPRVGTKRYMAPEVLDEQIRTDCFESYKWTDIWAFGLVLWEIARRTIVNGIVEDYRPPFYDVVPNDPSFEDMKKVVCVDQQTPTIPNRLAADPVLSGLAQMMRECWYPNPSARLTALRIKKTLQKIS
Sequence of ALK3 (aa198-525) (P36894 198-525): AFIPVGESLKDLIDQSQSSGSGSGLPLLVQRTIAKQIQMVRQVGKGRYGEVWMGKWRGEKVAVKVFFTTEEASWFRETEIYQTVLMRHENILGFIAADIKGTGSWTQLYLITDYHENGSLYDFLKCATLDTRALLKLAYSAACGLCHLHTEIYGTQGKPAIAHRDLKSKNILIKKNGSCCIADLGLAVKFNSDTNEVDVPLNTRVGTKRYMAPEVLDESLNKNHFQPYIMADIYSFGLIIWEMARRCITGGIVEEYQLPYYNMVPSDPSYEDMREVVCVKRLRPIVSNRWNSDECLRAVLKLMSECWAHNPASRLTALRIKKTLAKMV

Broadly, the IC50 is the midpoint of a concentration-inhibition curve. As to `CC(C)(O)C12CC(NC(=O)c3cc(-c4ccc([C@@]56C[C@@H]5CN(C5CCOCC5)C6)cc4)cnc3N)(C1)C2` [Example 83, 2-amino-N-(3-(2-hydroxypropan-2-yl)bicyclo[1.1.1]pentan-1-yl)-5-(4-((1R,5S)-3-(tetrahydro-2H-pyran-4-yl)-3-azabicyclo[3.1.0]hexan-1-yl)phenyl)nicotinamide], the IC50 on ALK3 (aa198-525) was determined as 15.1 µM; in assay [1] it was 0.1 µM; in assay [2], 0.145 µM; on ALK6 (aa168-495) it was 10 µM; on ALK1 (aa166-493) it was 5.6 µM; in assay [3], 0.36 µM. In addition, the IC50 at ALK5 (aa162-503) turned out to be 10 µM.
As to `Nc1ncc(-c2ccc([C@]34C[C@H]3CN(C3COC3)C4)cc2)cc1C(=O)N[C@H]1CC[C@H](O)CC1` [Example 26, 2-amino-N-((1r,4S)-4-hydroxycyclohexyl)-5-(4-((1S,5R)-3-(oxetan-3-yl)-3-azabicyclo[3.1.0]hexan-1-yl)phenyl)nicotinamide], the IC50 against ALK3 (aa198-525) worked out at 1.7 µM; in assay [1], 0.018 µM; in assay [2] it was 0.018 µM; on ALK6 (aa168-495), 2.5 µM; at ALK1 (aa166-493), 0.23 µM; in assay [3], 0.11 µM. For the same compound, the IC50 at ALK5 (aa162-503) was 4.3 µM.
On to `CC(C)N1C[C@@H]2C[C@]2(c2ccc(-c3cnc(N)c(C(=O)N[C@H]4CC[C@H](O)CC4)c3)cc2)C1` [Example 9, 2-amino-N-((1r,4S)-4-hydroxycyclohexyl)-5-(4-((1S,5R)-3-isopropyl-3-azabicyclo[3.1.0]hexan-1-yl)phenyl)nicotinamide], for which the IC50 came out at 1.6 µM at ALK3 (aa198-525); 0.011 µM in assay [1]; 0.011 µM in assay [2]; 3.13 µM at ALK6 (aa168-495); 0.127 µM on ALK1 (aa166-493); 0.043 µM in assay [3]. Moreover, the IC50 on ALK5 (aa162-503) amounted to 3.13 µM.
`C[C@]1(O)CC[C@H](NC(=O)c2cc(-c3ccc([C@]45C[C@H]4CN(C4CCC(F)(F)CC4)C5)cc3)cnc2N)CC1` [Example 58, 2-amino-5-(4-((1S,5R)-3-(4,4-difluorocyclohexyl)-3-azabicyclo[3.1.0]hexan-1-yl)phenyl)-N-((1r,4S)-4-hydroxy-4-methylcyclohexyl)nicotinamide]: the IC50 came out at 3.73 µM at ALK3 (aa198-525); 0.025 µM in assay [1]; 0.032 µM in assay [2]; 8.4 µM on ALK6 (aa168-495); 0.663 µM at ALK1 (aa166-493); 0.143 µM in assay [3]. In addition, the IC50 at ALK5 (aa162-503) is 7.55 µM.
On to `C[C@H](c1ccc(-c2cnc(N)c(C(=O)N[C@]3(C)CC[C@@H](O)CC3)c2)cc1)N1CC2(COC2)C1` [Example 86, 5-(4-((R)-1-(2-oxa-6-azaspiro[3.3]heptan-6-yl)ethyl)phenyl)-2-amino-N-((1r,4R)-4-hydroxy-1-methylcyclohexyl)nicotinamide], for which the IC50 is 8.2 µM at ALK3 (aa198-525); 0.11 µM in assay [1]; 0.205 µM in assay [2]; 10 µM on ALK6 (aa168-495); 2.3 µM on ALK1 (aa166-493); 1.08 µM in assay [3]. Further, at ALK5 (aa162-503), the IC50 amounted to 10 µM.
For the compound `COCCN1C[C@H]2C[C@@]2(c2ccc(-c3cnc(N)c(C(=O)N[C@H]4CC[C@H](O)CC4)c3)cc2)C1` [Example 75, 2-amino-N-((1r,4R)-4-hydroxycyclohexyl)-5-(4-((1R,5S)-3-(2-methoxyethyl)-3-azabicyclo[3.1.0]hexan-1-yl)phenyl)nicotinamide], the IC50 was determined as 1.8 µM against ALK3 (aa198-525); 0.011 µM in assay [1]; 0.14 µM in assay [2]; 7.7 µM on ALK6 (aa168-495); 0.21 µM on ALK1 (aa166-493); 0.33 µM in assay [3]. Besides, the IC50 at ALK5 (aa162-503) is 4.6 µM.
